Patent publication US11926679B2, “Oligopeptide search method, oligopeptide, modified peptide, and immunoassay method” (ZEON CORPORATION, priority 2016, dated 2024)

Columns and labels:
[1] = tested on: CHO (Chinese Hamster Ovary) cells; assay: CHO cell shape on polypeptide-coated 1060R plate; type: cell-based; conditions: microscope, 5 hours after the start of culture, serum-free medium, coating 10 μg/ml
Description: Each of the solutions which this Polypeptide 3 and Polypeptide 2 obtained in Example 2 were dissolved in PBS in a concentration of 10 μg/ml respectively was filter-sterilized. To an EOG-sterilized 1060R plate, 50 μL per well of each of the resultant solution was added. The plates were allowed to stand at room temperature (25° C.) for 1 hour.
After allowed to stand, each of the 1060R plates incubated with Polypeptide 3 and Polypeptide 2 obtained in Example 2 was washed three times with sterilized PBS to obtain a Polypeptide 3-coated 1060R plate and a Polypeptide 2-coated 1060R plate.
To wells of the two plates thus obtained and a 1060R plate that was not coated with a polypeptide, CHO (Chinese Hamster Ovary) cells suspended in a serum-free medium (serum free medium ESF SFM Serum⋅Free Medium for Hybridoma, CHO & 293 Cells, manufactured by Expression Systems, LLC) were added and maintained the culture in a CO2 incubator at 37° C.

[2] = Evaluation of adhesiveness to the container (anti-6-His detection, absorbance at 450 nm); type: binding
Description: Polypeptide 1, Polypeptide 2, and a human normal IgG antibody (manufactured by Wako Pure Chemical Industries, Ltd.) were dissolved in a PBS solution and 10% DMSO in PBS (10% DMSO PBS) each in a concentration of 10 μg/ml to give various solutions.
To a 96-well plate obtained by injection molding of a hydride of a norbornene-based ring-opened polymer [Zeonor® 1060R, manufactured by Zeon Corporation] (hereinafter referred to as a “1060R plate”) and a 96-well plate made of polystyrene (product name “Falcon® (Falcon is a registered trademark in Japan, other countries, or both)”, manufactured by Corning Incorporated; hereinafter referred to as a “TCPS plate”), each of the polypeptide solutions prepared above was added in an amount of 50 μL/well (N=3) and the plates were allowed to stand at room temperature (25° C.) for 1 hour.
After allowed to stand, the insides of the wells of the 1060R plate and the TCPS plate were washed three times with T-TBS (0.05 m Tris hydrochloric acid, 0.15 m sodium chloride, 0.05% Tween® 20; pH 7.6). […]
For the wells of each plate, the absorbance at 450 nm was measured using a well plate reader apparatus (manufactured by CORONA ELECTRIC Co., Ltd.).

[3] = Phage display peptide library search on norbornene-based polymer culture dish; type: binding; conditions: tertiary phage solutions; washes with PBS, Glycine HCl pH 2, Glycine NaOH pH 10, then PBS containing 10% DMSO
Description: As a phage display peptide library, Ph.D.-C7C Phage Display Peptide Library Kit (manufactured by New England Biolabs Japan Inc.) was used.
The phage solution was dissolved in a phosphate buffer (PBS; a mixed solution of 137 mmol/l NaCl, 8.1 mmol/l Na2HPO4, 2.68 mmol/l KCl, and 1.47 mmol/l KH2PO4, pH 7.4) to give a peptide library.
Thereafter, the bottom of the culture dish was washed three times with PBS.
Subsequently, it was washed once with 40 mM Glycine HCl Buffer (pH 2.2) adjusted to pH 2, and further, 40 mM Glycine NaOH (pH 10) adjusted to pH 10 was added dropwise to it.
The dropped solution was collected, and the pH was immediately neutralized with a dilute hydrochloric acid (pH=7.0) to obtain a “phage solution washed with an alkali and collected”.
Subsequently, a PBS containing 10% DMSO was added dropwise to the bottom of the culture dish, and the dropped solution was collected to obtain a “phage solution washed with DMSO and collected.” […]
The gene sequences of the phages contained in the two phage solutions obtained by acquisition of the tertiary phage solutions were read to obtain corresponding amino acid sequences.

[4] = Blocking effect against non-specific adsorption of antibody, 1060R plate; conditions: solution containing no protein, 0.05% or 0.2% in PBS, FIG. 8
Excerpt: (§1) The container on which the synthetic BNP antigen was immobilized was blocked in the same manner as in Example 5, using a phosphate buffered saline containing 10% blocking agent (manufactured by NACALAI TESQUE, INC., product name “Blocking One”) containing a widely used casein (“Blocking One having a final concentration of 10%”), a phosphate buffered saline containing 0.05% Tween® 20 (“Tween® 20 PBS having a final concentration of 0.05%”), and a phosphate buffered saline containing 0.2% Tween® 20 (“Tween® 20 PBS having a final concentration of 0.2%”) as blocking agents, and compared to the condition without the blocking treatment.
(§2) As microwell plates, the 1060R plate (experimental example) and the PS plate (comparative example) were used. […]
(§3) After the resultant was allowed to stand, the solution in the wells was removed, followed by washing three times with a phosphate buffered saline containing 0.05% Tween® 20. […] After adding 0.1 M sulfuric acid as a stop solution, the absorbance at 450 nm was measured with a light absorption plate reader.
(§4) The value for each condition was determined using the relative value to the measured absorbance value of the well that was not subjected to blocking in the 1060R plate.

[5] = Blocking effect against non-specific adsorption of antibody, PS plate; conditions: containing no protein, FIG. 8
Excerpt: as §1, §2, §3, §4

[6] = Adsorption of antigen to multi-well plate, PS plate; type: binding; conditions: FIG. 6
Excerpt: (§5) The condition for adsorption of an antigen to a multi-well plate was examined. A comparison of adsorption of an antigen was made by using a 96-well plate obtained by injection molding of a hydride of a norbornene-based ring-opened polymer [Zeonor® 1060R, manufactured by Zeon Corporation] (hereinafter referred to as a “1060R plate”) and a 96-well plate made of polystyrene (product name “SUMILON® (SUMILON is a registered trademark in Japan, other countries, or both) ELISA Plate H”, manufactured by Sumitomo Bakelite Co., Ltd.; hereinafter referred to as a “PS plate”).
(§6) A peptide in which the amino acid sequence of […](SEQ ID NO: 7) that has the property of specifically attaching to a norbornene-based polymer is bound to the N terminal of the amino acid sequence of Cys-Lys-Val-Leu-Arg-Arg-His (SEQ ID NO: 6) of the antibody recognition site of the human BNP (brain natriuretic peptide) (hereinafter referred to as a “synthetic BNP antigen”) was synthesized. […]
(§7) Then, the synthetic BNP antigen immobilized in the plate was allowed to develop a color using a coloring reagent (manufactured by NACALAI TESQUE, INC., product name “ELISA POD Substrate TMB Solution”), and quenched with a dilute sulfuric acid, followed by measuring the absorbance at 450 nm by an absorbance plate reader.

[7] = Adsorption of antigen to multi-well plate, 1060R plate; type: binding; conditions: FIG. 6
Excerpt: as §5, §6, §7

ACTVDSCLTCGGGGGHHHHHH [Polypeptide 2]
shape of CHO cells on coated 1060R plate [1]: rounded shapes
absorbance at 450 nm of the 1060R plate compared with the TCPS plate ([2]; 10 μg/ml polypeptide, 1 hour at room temperature, FIG. 2): higher than that of the TCPS plate
adhesiveness to a norbornene-based polymer ([2]; conclusion from FIG. 2): high adhesiveness

ACTVDSCLTCGGGGGRGDSPHHHHHH [Polypeptide 3]
shape of CHO cells on coated 1060R plate [1]: shapes in which the cells were stretched

TVDNSLA [Thr-Val-Asp-Asn-Ser-Leu-Ala]
adhesion/elution behaviour of the amino acid sequence on the norbornene-based polymer dish [3]: eluting at a high pH

TVDSCLT [Thr-Val-Asp-Ser-Cys-Leu-Thr]
adhesion/elution behaviour of the amino acid sequence on the norbornene-based polymer dish [3]: continued to adhere even after washed with an alkali and was eluted with an organic solvent

polyoxyethylene sorbitan monolaurate [Tween® 20]
blocking effect (relative absorbance at 450 nm) [4]: a blocking effect was observed
blocking effect (relative absorbance at 450 nm) [5]: a blocking effect was lower as compared to a blocking agent containing a protein

synthetic BNP antigen: peptide in which SEQ ID NO: 7 (norbornene polymer-attaching sequence) is bound to the N terminal of SEQ ID NO: 6, antibody recognition site of human BNP (ACTVDSCLTCGGGGGSSSGLGCKVLRRH)
attachment of antigen to the plate (absorbance at 450 nm) [6]: not attached
attachment of antigen to the plate (absorbance at 450 nm) [7]: attached
